pIC50: −log10 of the molar value.

The pIC50 is the IC50 on a negative log10 scale, so that one unit is a factor of ten.

In assay [1] the target is T1, AAK1 (Homo sapiens, UniProt Q2M2I8).
T1 construct: HA; expressed in transfected cells; host or cells: HEK293F
Briefly: P81 filter plate assay. It is filed as biochemical. Conditions: full-length human AAK1, Mu2 substrate. The protocol:
Compounds were serially diluted into a Labcyte LDV plate (Labcyte, cat#LP-0200) using a Mutiprobe (PerkinElmer) and Biomek FX (Beckman Coulter) so that the highest compound concentration was at 96 μM. Compounds were then pinged (75 nL per well) into a Greiner 384-well reaction plate (Greiner, #781076) using an ECHO 550 Liquid Handler (Labcyte). A total of 12 μl reaction buffer (IMAP buffer containing Tween and DTT, from Molecular Devices) was then added to each well of columns 1 and 13 for the negative controls and 12 μl of 2×AAK1 (0.2 nM full-length human protein, NCBI accession no. NP_055726.2) was added to the remaining wells. Enzyme was then pre-incubated with compound for 10 minutes at RT. Reactions were initiated upon Minitrak (PerkinElmer) addition of 12 μl substrate mix containing 2×Mu2 (0.2 μM, full length human protein), 2× cold ATP (2 μM), and 1.3 μCi of hot ^33P-ATP. Reactions proceeded for one hour at RT. Meanwhile, Millipore 384-well P81 filter plates (Millipore, catalog #MZPHNOW10) were placed on a plate washer (Zoom ZW, from Titertek) and pre-wet with 50 μl 1% phosphoric acid. Kinase reactions were then stopped upon addition of 24 μl of 2% phosphoric acid to each well and the Minitrak was then used to transfer 40 μl from each well into the pre-wet Millipore 384-well P81 filter plates. Reaction mixtures were incubated for 10 minutes at RT in the P81 plates, followed by washing five times with 100 μl/well of 1% phosphoric acid using the Zoom filter washer. The bottom of each filter plate was sealed followed by addition of 20 μl Microscint 40 to each well, sealing the top of the plates with Flashplate cover, and then waiting one hour until reading on the TopCount (PerkinElmer).

For assay [2], the target named is T1, AAK1. Briefly: HEK281 cell-based assay (phospho-mu2 Western blot in transfected HEK293F cells). Conditions: 3 hours incubation, read-out: CBA IC50. In a few lines:
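HEK293F cells co-transfected with full-length human AAK1/HA and Flag/AP2M1 were treated next day with 5 compound concentrations (3-fold dilutions) in DMEM+0.5% FBS for 3 hours at 37° C. Lysates were Western blotted for phospho-mu2, with total mu2 detected by anti-Flag.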
For orientation: In western blotting, separated proteins are transferred to a membrane and probed.

T1 sequence (Q2M2I8 1-863 isoform Q2M2I8-2): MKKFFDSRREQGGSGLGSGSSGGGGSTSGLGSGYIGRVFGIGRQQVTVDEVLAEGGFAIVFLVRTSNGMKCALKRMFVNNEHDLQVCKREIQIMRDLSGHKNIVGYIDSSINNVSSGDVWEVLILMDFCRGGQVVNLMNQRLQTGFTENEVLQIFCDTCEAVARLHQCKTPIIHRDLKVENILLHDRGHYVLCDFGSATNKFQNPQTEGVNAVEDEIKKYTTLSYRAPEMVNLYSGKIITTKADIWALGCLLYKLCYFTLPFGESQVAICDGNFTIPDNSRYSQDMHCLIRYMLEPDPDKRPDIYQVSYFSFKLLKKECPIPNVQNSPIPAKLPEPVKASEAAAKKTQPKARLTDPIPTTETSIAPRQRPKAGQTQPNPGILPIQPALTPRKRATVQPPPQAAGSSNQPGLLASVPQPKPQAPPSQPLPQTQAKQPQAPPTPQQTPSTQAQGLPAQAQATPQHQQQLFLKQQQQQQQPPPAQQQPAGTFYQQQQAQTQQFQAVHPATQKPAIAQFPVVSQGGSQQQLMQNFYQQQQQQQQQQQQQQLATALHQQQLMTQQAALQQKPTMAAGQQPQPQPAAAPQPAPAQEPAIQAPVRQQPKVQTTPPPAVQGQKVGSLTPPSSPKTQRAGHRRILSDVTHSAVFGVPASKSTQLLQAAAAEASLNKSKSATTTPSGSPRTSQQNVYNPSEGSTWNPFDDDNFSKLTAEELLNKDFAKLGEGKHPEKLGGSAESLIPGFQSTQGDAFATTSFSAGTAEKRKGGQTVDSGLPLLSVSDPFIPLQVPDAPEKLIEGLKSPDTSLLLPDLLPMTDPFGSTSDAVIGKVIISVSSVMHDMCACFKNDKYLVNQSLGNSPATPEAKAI

On to `CC(=O)c1cnc2ccc(N3CCN(C(=O)C4(N)CCCC4)CC3)nn12` [1-(6-(4-(1-aminocyclopentanecarbonyl)piperazin-1-yl)imidazo[1,2-b]pyridazin-3-yl)ethanone], for which the pIC50 on AAK1 [1] is ≥ 7.00. On the same count and under the same terms, as for `CC(C)(C)C(=O)N1CCN(c2ccc3ncc(-c4ccccc4)n3n2)CC1` [2,2-dimethyl-1-(4-(3-phenylimidazo[1,2-b]pyridazin-6-yl)piperazin-1-yl)propan-1-one], the figure is ≥ 7.00; as for `O=C(OC1CCOC1)N1CCC[C@H]1CNc1ccc2ncc(-c3ccncc3)n2n1` (stereo partly drawn) [(2S)-tetrahydrofuran-3-yl 2-(((3-(pyridin-4-yl)imidazo[1,2-b]pyridazin-6-yl)amino)methyl)pyrrolidine-1-carboxylate], ≥ 8.00; as for `O=C(OC1CCOC1)N1CCC[C@H]1CNc1ccc2ncc(Br)n2n1` (stereo partly drawn) [(2S)-tetrahydrofuran-3-yl 2-(((3-bromoimidazo[1,2-b]pyridazin-6-yl)amino)methyl)pyrrolidine-1-carboxylate], ≥ 8.00. On to `OCc1ccc(-c2cnc3ccc(NCCOC4CCCC4)nn23)cc1` [(4-(6-((2-(cyclopentyloxy)ethyl)amino)imidazo[1,2-b]pyridazin-3-yl)phenyl)methanol], for which the pIC50 at AAK1 [1] is ≥ 8.00.

As for `CC(C)CC(=O)N1CCC[C@H]1CNc1ccc2ncc(-c3ccnc(F)c3)n2n1` [(S)-1-(2-(((3-(2-fluoropyridin-4-yl)imidazo[1,2-b]pyridazin-6-yl)amino)methyl)pyrrolidin-1-yl)-3-methylbutan-1-one], the negative logarithm of the IC50 (pIC50) against AAK1 [1] was ≥ 8.00. On the same count and under the same terms, the value for `CC(C)CC(=O)N1CCC[C@H]1CNc1ccc2ncc(C3=CCCC3)n2n1` [(S)-1-(2-(((3-(cyclopent-1-en-1-yl)imidazo[1,2-b]pyridazin-6-yl)amino)methyl)pyrrolidin-1-yl)-3-methylbutan-1-one] was ≥ 8.00.

With `CCCC(=O)N1CCC[C@H]1CNc1ccc2ncc(-c3ccncc3)n2n1` [(S)-1-(2-(((3-(pyridin-4-yl)imidazo[1,2-b]pyridazin-6-yl)amino)methyl)pyrrolidin-1-yl)butan-1-one], at AAK1 [1], the negative-log IC50 (pIC50) is ≥ 8.00. Same read-out and setting: as for `CC(C)(C)CCN1C(=O)CC[C@H]1CNc1ccc2ncc(-c3ccncc3)n2n1` [(S)-1-(3,3-dimethylbutyl)-5-(((3-(pyridin-4-yl)imidazo[1,2-b]pyridazin-6-yl)amino)methyl)pyrrolidin-2-one], the figure is ≥ 8.00; as for `COc1ncccc1-c1cnc2ccc(N3CC[C@H](O)C3)nn12` [(S)-1-(3-(2-methoxypyridin-3-yl)imidazo[1,2-b]pyridazin-6-yl)pyrrolidin-3-ol], ≥ 6.00. Take `COC(=O)N(CCNc1ccc2ncc(-c3ccncc3OC)n2n1)C(C)C` [methyl isopropyl(2-((3-(3-methoxypyridin-4-yl)imidazo[1,2-b]pyridazin-6-yl)amino)ethyl)carbamate]: the negative logarithm of the IC50 (pIC50) on AAK1 [2] was ≥ 8.00.

For the compound `CCCOC(=O)N(CCNc1ccc2ncc(-c3ccncc3OC)n2n1)C(C)C` [propyl isopropyl(2-((3-(3-methoxypyridin-4-yl)imidazo[1,2-b]pyridazin-6-yl)amino)ethyl)carbamate], on AAK1 [2], the pIC50 was ≥ 6.00. On to `CC(C)(C)OC(=O)N1CCCC1CCNc1ccc2ncc(-c3ccc(CN)cc3)n2n1` (stereo not drawn) [tert-butyl 2-(2-((3-(4-(aminomethyl)phenyl)imidazo[1,2-b]pyridazin-6-yl)amino)ethyl)pyrrolidine-1-carboxylate], for which the negative logarithm of the IC50 (pIC50) on AAK1 [2] was ≥ 8.00. On the same count and under the same terms, as for `CC(C)(C)OC(=O)N1CCCC1CCNc1ccc2ncc(-c3ccc(C(N)=O)cc3)n2n1` (stereo not drawn) [tert-butyl 2-(2-((3-(4-carbamoylphenyl)imidazo[1,2-b]pyridazin-6-yl)amino)ethyl)pyrrolidine-1-carboxylate], the figure is ≥ 7.00.

As to `COc1cnccc1-c1cnc2ccc(N3CCN(C(=O)OC(C)(C)C)CC3)nn12` [tert-butyl 4-(3-(3-methoxypyridin-4-yl)imidazo[1,2-b]pyridazin-6-yl)piperazine-1-carboxylate], the negative logarithm of the IC50 (pIC50) at AAK1 [2] was ≥ 8.00. In the case of `CC(C)(C)OC(=O)N1CCN(c2ccc3ncc(Cl)n3n2)CC1` [tert-butyl 4-(3-chloroimidazo[1,2-b]pyridazin-6-yl)piperazine-1-carboxylate], on AAK1 [2], the pIC50 was ≥ 7.00. The same measure, in the same setting: as for `CN(CCNc1ccc2ncc(-c3ccnc(N)c3)n2n1)C(=O)OC(C)(C)C` [tert-butyl (2-((3-(2-aminopyridin-4-yl)imidazo[1,2-b]pyridazin-6-yl)amino)ethyl)(methyl)carbamate], the figure is ≥ 8.00. Still for that read-out and setting: as for `CN(CCNc1ccc2ncc(-c3ccccc3F)n2n1)C(=O)OC(C)(C)C` [tert-butyl (2-((3-(2-fluorophenyl)imidazo[1,2-b]pyridazin-6-yl)amino)ethyl)(methyl)carbamate], the figure is ≥ 7.00. The same measure, in the same setting: as for `CN(CCNc1ccc2ncc(-c3ccnc(F)c3)n2n1)C(=O)OC(C)(C)C` [tert-butyl (2-((3-(2-fluoropyridin-4-yl)imidazo[1,2-b]pyridazin-6-yl)amino)ethyl)(methyl)carbamate], the figure is ≥ 7.00. With `COc1ccccc1-c1cnc2ccc(NCCN(C)C(=O)OC(C)(C)C)nn12` [tert-butyl (2-((3-(2-methoxyphenyl)imidazo[1,2-b]pyridazin-6-yl)amino)ethyl)(methyl)carbamate], the pIC50 at AAK1 [2] is ≥ 7.00. The same measure, in the same setting: as for `CN(CCNc1ccc2ncc(-c3cccc(C(N)=O)c3)n2n1)C(=O)OC(C)(C)C` [tert-butyl (2-((3-(3-carbamoylphenyl)imidazo[1,2-b]pyridazin-6-yl)amino)ethyl)(methyl)carbamate], the figure is ≥ 7.00; as for `COc1cccc(-c2cnc3ccc(NCCN(C)C(=O)OC(C)(C)C)nn23)c1` [tert-butyl (2-((3-(3-methoxyphenyl)imidazo[1,2-b]pyridazin-6-yl)amino)ethyl)(methyl)carbamate], ≥ 7.00; as for `COc1cnccc1-c1cnc2ccc(NCCN(C)C(=O)OC(C)(C)C)nn12` [tert-butyl (2-((3-(3-methoxypyridin-4-yl)imidazo[1,2-b]pyridazin-6-yl)amino)ethyl)(methyl)carbamate], ≥ 6.00. Still for that read-out and setting: as for `CC(C)(C)OC(=O)NCCNc1ccc2ncc(-c3ccc(CN)cc3)n2n1` [tert-butyl (2-((3-(4-(aminomethyl)phenyl)imidazo[1,2-b]pyridazin-6-yl)amino)ethyl)carbamate], the figure is ≥ 7.00; as for `CN(CCNc1ccc2ncc(-c3ccc(CC#N)cc3)n2n1)C(=O)OC(C)(C)C` [tert-butyl (2-((3-(4-(cyanomethyl)phenyl)imidazo[1,2-b]pyridazin-6-yl)amino)ethyl)(methyl)carbamate], ≥ 7.00; as for `CC(C)N(CCNc1ccc2ncc(-c3ccc(C(N)=O)cc3)n2n1)C(=O)OC(C)(C)C` [tert-butyl (2-((3-(4-carbamoylphenyl)imidazo[1,2-b]pyridazin-6-yl)amino)ethyl)(isopropyl)carbamate], ≥ 8.00. Same read-out and setting: as for `CC(=O)c1ccc(-c2cnc3ccc(NCCN(C)C(=O)OC(C)(C)C)nn23)s1` [tert-butyl (2-((3-(5-acetylthiophen-2-yl)imidazo[1,2-b]pyridazin-6-yl)amino)ethyl)(methyl)carbamate], the figure is ≥ 8.00; as for `CN(CCCNc1ccc2ncc(-c3ccc(CN)cc3)n2n1)C(=O)OC(C)(C)C` [tert-butyl (3-((3-(4-(aminomethyl)phenyl)imidazo[1,2-b]pyridazin-6-yl)amino)propyl)(methyl)carbamate], ≥ 7.00. With `CC(=O)c1ccc(-c2cnc3ccc(NCCCN(C)C(=O)OC(C)(C)C)nn23)s1` [tert-butyl (3-((3-(5-acetylthiophen-2-yl)imidazo[1,2-b]pyridazin-6-yl)amino)propyl)(methyl)carbamate], the pIC50 at AAK1 [2] was ≥ 7.00. Same read-out and setting: the value for `COc1cnccc1-c1cnc2ccc(NCCN(C(=O)OC(C)(C)C)C(C)C)nn12` [tert-butyl isopropyl(2-((3-(3-methoxypyridin-4-yl)imidazo[1,2-b]pyridazin-6-yl)amino)ethyl)carbamate] was ≥ 7.00; that for `CNC(=O)c1ccc(-c2cnc3ccc(NCCN(C)C(=O)OC(C)(C)C)nn23)cc1` [tert-butyl methyl(2-((3-(4-(methylcarbamoyl)phenyl)imidazo[1,2-b]pyridazin-6-yl)amino)ethyl)carbamate] was ≥ 7.00; that for `CN(CCNc1ccc2ncc(-c3ccc(C4CCCN4)cc3)n2n1)C(=O)OC(C)(C)C` (stereo not drawn) [tert-butyl methyl(2-((3-(4-(pyrrolidin-2-yl)phenyl)imidazo[1,2-b]pyridazin-6-yl)amino)ethyl)carbamate] was ≥ 8.00. On the same count and under the same terms, the value for `CN(CCNc1ccc2ncc(-c3ccncc3)n2n1)C(=O)OC(C)(C)C` [tert-butyl methyl(2-((3-(pyridin-4-yl)imidazo[1,2-b]pyridazin-6-yl)amino)ethyl)carbamate] was ≥ 7.00.

The values above are taken from patent US8969565B2, “Imidazo[1,2-b]pyridazine-based compounds, compositions comprising them, and methods of their use” (Lexicon Pharmaceuticals, Inc., priority 2012, dated 2015).
